# Laboratory results from ChEMBL document CHEMBL4483862, “Open-source discovery of chemical leads for next-generation chemoprotective antimalarials” (2018).
# Test system: Plasmodium berghei
# Test: Luciferase/luciferin-expressing antifolate-resistant parasites were used to infect a culture of HepG2 cells that were pre-incubated with compounds. Infected hepatocytes emit light due to the luciferase reaction. Assay results are presented as the percent inhibition of light emission compared to control. […]
# Format: functional
# Details: sporozoite; for IC90: read-out: LUCIFERASE INFECTION ASSAY - IC90
# [1] = read-out: LUCIFERASE INFECTION ASSAY - IC50
SMILES,IC90 [µM],also measured
Cc1nn(-c2ccccc2)c(C)c1C(=O)ONC(=N)c1cccc(Cl)c1,> 8.95,"IC50 (PBLUC_HILL_SLOPE 7.89, PBLUC_R_SQUARED 0.243, read-out: LUCIFERASE INFECTION ASSAY - IC50): 7.68 µM"
Cc1c(-c2ccccc2)sc(N)c1C#N,> 15.4,"IC50 (HEPG2TOX_HILL_SLOPE 1.71, HEPG2TOX_R_SQUARED 0.831, PBLUC_HILL_SLOPE 15.7, PBLUC_R_SQUARED 0.066, read-out: LUCIFERASE INFECTION ASSAY - IC50): 14.9 µM"
Cn1cc(S(=O)(=O)Nc2cccc(CN3C(=O)CNC3=O)c2)cc1C(N)=O,> 10,IC50 [1]: > 10 µM
COc1cc(F)c(S(=O)(=O)N2CCCc3cc(F)cc(F)c32)cc1OC,> 10,"IC50 (PBLUC_HILL_SLOPE 2.81, PBLUC_R_SQUARED 0.427, read-out: LUCIFERASE INFECTION ASSAY - IC50): 6.52 µM"
C=CCN(c1ccccc1Cl)S(=O)(=O)c1cc(C(=O)NCc2cn3cc(Cl)ccc3n2)ccc1Cl,> 10,"IC50 (FFLUC_HILL_SLOPE 155, FFLUC_R_SQUARED 0.0996, read-out: LUCIFERASE INFECTION ASSAY - IC50): > 10 µM"
Cc1c(C)n(Cc2ccccc2)c2ncn3nc(-c4cccnc4)nc3c12,> 9.31,IC50 [1]: > 9.31 µM
Cn1ncc2c(ON=C(N)c3ccc(C(C)(C)C)cc3)ncnc21,9.41,"IC50 (HEPG2TOX_HILL_SLOPE 12.1, HEPG2TOX_R_SQUARED 0.899, PBLUC_HILL_SLOPE 18.6, PBLUC_R_SQUARED 0.286, read-out: LUCIFERASE INFECTION ASSAY - IC50): 8.36 µM"
COc1ccc(-c2cnc3ccc(-c4cccc(OC(F)(F)F)c4)nn23)cc1OC,1.23,"IC50 (FFLUC_HILL_SLOPE 21.1, FFLUC_R_SQUARED 0.421, PBLUC_HILL_SLOPE 16.1, PBLUC_R_SQUARED 0.675, read-out: LUCIFERASE INFECTION ASSAY - IC50): 1.08 µM"
O=C(NC1CC1)N1CCN(S(=O)(=O)c2ccc3c(c2)OCCCO3)CC1,> 10,IC50 [1]: > 10 µM
Cn1nc(C(=O)N2CCc3ccccc3C2)c2c1CCC(NCCc1nc(-c3ccccc3)cs1)C2 (stereo not drawn),> 6.63,"IC50 (PBLUC_HILL_SLOPE 5.11, PBLUC_R_SQUARED 0.298, read-out: LUCIFERASE INFECTION ASSAY - IC50): 5.56 µM"
Clc1ccc2c(NCc3ccc(-n4cccn4)nc3)ncnc2c1,> 10,"IC50 (PBLUC_HILL_SLOPE 1.57, PBLUC_R_SQUARED 0.509, read-out: LUCIFERASE INFECTION ASSAY - IC50): 3.37 µM"
O=C(Nc1ccc(SC(F)(F)F)cc1)Nc1ccc(Oc2ccc(Cl)cc2Cl)nc1,5.98,"IC50 (FFLUC_HILL_SLOPE 4.22, FFLUC_R_SQUARED 0.441, HEPG2TOX_HILL_SLOPE 15.8, HEPG2TOX_R_SQUARED 0.933, PBLUC_HILL_SLOPE 1.66, PBLUC_R_SQUARED 0.482, read-out: LUCIFERASE INFECTION ASSAY - IC50): 1.59 µM"
Cc1nc2ccccn2c1C(=O)NCc1cccc(OC(F)(F)F)c1,> 9.45,"IC50 (PBLUC_HILL_SLOPE 18.2, PBLUC_R_SQUARED 0.0314, read-out: LUCIFERASE INFECTION ASSAY - IC50): 8.72 µM"
Cc1sc2nc(-c3cccnc3)nc(Nc3ccc(N(C)C)nc3)c2c1C,5.59,"IC50 (PBLUC_HILL_SLOPE 6.08, PBLUC_R_SQUARED 0.68, read-out: LUCIFERASE INFECTION ASSAY - IC50): 3.9 µM"
O=C(NC(CN1CCCC1)c1ccccc1)c1ccc(N2CCCC2=O)cc1 (stereo not drawn),> 10,"IC50 (HEPG2TOX_HILL_SLOPE 1.34, HEPG2TOX_R_SQUARED 0.227, PBLUC_HILL_SLOPE 0.905, PBLUC_R_SQUARED 0.0409, read-out: LUCIFERASE INFECTION ASSAY - IC50): > 10 µM"
COc1cc(OC)cc(-c2cnc3cnc(-c4ccccc4C)cn23)c1,2.62,"IC50 (HEPG2TOX_HILL_SLOPE 1.68, HEPG2TOX_R_SQUARED 0.933, PBLUC_HILL_SLOPE 2.21, PBLUC_R_SQUARED 0.835, read-out: LUCIFERASE INFECTION ASSAY - IC50): 0.97 µM"
CCCCc1noc(C(C)Sc2nc(C(C)(C)C)nc3c2c(=O)n(C)c(=O)n3C)n1 (stereo not drawn),> 10,"IC50 (HEPG2TOX_HILL_SLOPE 1.13, HEPG2TOX_R_SQUARED 0.608, PBLUC_HILL_SLOPE 1.15, PBLUC_R_SQUARED 0.641, read-out: LUCIFERASE INFECTION ASSAY - IC50): 3.92 µM"
c1ccc(-c2nnc(SCc3cn4ccccc4n3)nc2-c2ccccc2)cc1,> 10,IC50 [1]: > 10 µM
CC(Nc1ccc(Cc2nc3ccccc3s2)cc1)C(=O)N1CCNC1=O (stereo not drawn),9.74,"IC50 (PBLUC_HILL_SLOPE 6.15, PBLUC_R_SQUARED 0.163, read-out: LUCIFERASE INFECTION ASSAY - IC50): 6.81 µM"
COc1cc(-c2nc3ccc(NC(=O)c4ccco4)cn3n2)cc(OC)c1OC,> 10,"IC50 (PBLUC_HILL_SLOPE 0.261, PBLUC_R_SQUARED 0.0451, read-out: LUCIFERASE INFECTION ASSAY - IC50): > 10 µM"

SMILES,IC90 [µM],also measured
Cc1cc(C)c(S(=O)(=O)Nc2cc3c(C(=O)Nc4ccccc4)c(C)oc3c3ccccc23)c(C)c1,> 10,IC50 [1]: > 10 µM
Cc1cccc(C)c1NC(=O)Nc1cccn(Cc2ccc(Cl)cc2)c1=O,> 8.64,"IC50 (PBLUC_HILL_SLOPE 2.91, PBLUC_R_SQUARED 0.157, read-out: LUCIFERASE INFECTION ASSAY - IC50): 7.92 µM"
O=C(COc1ccccc1)N1CCc2nc(NCc3cccc(Oc4ccccc4)c3)ncc2C1,> 7.07,IC50 [1]: > 7.07 µM
Cc1cc(C)c(NC(=O)CN(C)C2CC(=O)N(C)C2=O)c(C)c1 (stereo not drawn),> 10,"IC50 (HEPG2TOX_HILL_SLOPE 0.116, HEPG2TOX_R_SQUARED 0.0867, read-out: LUCIFERASE INFECTION ASSAY - IC50): > 10 µM"
Cc1onc(-c2ccc(Cl)cc2Cl)c1-c1csc(Nc2cc(C(F)(F)F)cc(C(F)(F)F)c2)n1,2.73,"IC50 (HEPG2TOX_HILL_SLOPE 2.62, HEPG2TOX_R_SQUARED 0.945, PBLUC_HILL_SLOPE 2.66, PBLUC_R_SQUARED 0.706, read-out: LUCIFERASE INFECTION ASSAY - IC50): 1.19 µM"
CN(C)c1ccc(C(=O)N/N=C/c2cc(Cl)cc(Cl)c2O)cc1,> 9.37,IC50 [1]: > 9.37 µM
CC1(C(=O)Nc2cnc3ccccc3c2)CCN1Cc1ccccc1Cl (stereo not drawn),> 9.02,"IC50 (HEPG2TOX_HILL_SLOPE 0.189, HEPG2TOX_R_SQUARED 0.318, read-out: LUCIFERASE INFECTION ASSAY - IC50): > 9.02 µM"
COc1cc(Nc2ncc3c(n2)CCN(C(=O)Nc2ccc(C(C)C)cc2)C3)cc(OC)c1OC,6.4,"IC50 (HEPG2TOX_HILL_SLOPE 2.3, HEPG2TOX_R_SQUARED 0.688, PBLUC_HILL_SLOPE 0.8, PBLUC_R_SQUARED 0.723, read-out: LUCIFERASE INFECTION ASSAY - IC50): 0.411 µM"
CCOC(=O)c1oc2ccc(Br)cc2c1CSc1nnc(-c2cccs2)n1Cc1ccccc1,> 10,"IC50 (HEPG2TOX_HILL_SLOPE 1.32, HEPG2TOX_R_SQUARED 0.694, read-out: LUCIFERASE INFECTION ASSAY - IC50): > 10 µM"
COc1cc(C(=O)c2c(N)c(C#N)cn3c2nc2ccccc23)cc(OC)c1OC,1.04,"IC50 (HEPG2TOX_HILL_SLOPE 1.34, 0.970, HEPG2TOX_R_SQUARED 0.842, 0.883, PBLUC_HILL_SLOPE 1.49, PBLUC_R_SQUARED 0.764, read-out: LUCIFERASE INFECTION ASSAY - IC50): 0.237 µM"
Cc1c(C)n(CCCO)c2ncn3nc(-c4ccccc4)nc3c12,> 10.3,"IC50 (PBLUC_HILL_SLOPE 0.753, PBLUC_R_SQUARED 0.737, read-out: LUCIFERASE INFECTION ASSAY - IC50): 1.26 µM"
Clc1ccc(-c2cnc3cnc(-c4ccsc4)cn23)cc1,8.06,IC50 [1]: 2.46 µM
N#CC1c2ccccc2Oc2ccccc21,> 15.9,"IC50 (FFLUC_HILL_SLOPE 8.54, FFLUC_R_SQUARED 0.413, HEPG2TOX_HILL_SLOPE 16, HEPG2TOX_R_SQUARED 0.746, PBLUC_HILL_SLOPE 2.78, PBLUC_R_SQUARED 0.395, read-out: LUCIFERASE INFECTION ASSAY - IC50): 10.4 µM"
Cc1nc2ccccc2nc1SCC(=O)NC1CCCC(C)C1C (stereo not drawn),8.45,"IC50 (HEPG2TOX_HILL_SLOPE 2.05, HEPG2TOX_R_SQUARED 0.851, PBLUC_HILL_SLOPE 3.81, PBLUC_R_SQUARED 0.351, read-out: LUCIFERASE INFECTION ASSAY - IC50): 4.75 µM"
COC(=O)c1ccc(C(=O)Nc2nc3ccc(C)cn3c2C(=O)NC2CCCCC2)cc1,> 7.6,"IC50 (HEPG2TOX_HILL_SLOPE 6.71, HEPG2TOX_R_SQUARED 0.117, PBLUC_HILL_SLOPE 12.8, PBLUC_R_SQUARED 0.0177, read-out: LUCIFERASE INFECTION ASSAY - IC50): 7.03 µM"
CC1Cc2cc(C3=NNC(=NC4CC4)SC3)ccc2N1S(C)(=O)=O (stereo not drawn),1.38,"IC50 (FFLUC_HILL_SLOPE 2.25, FFLUC_R_SQUARED 0.383, HEPG2TOX_HILL_SLOPE 1.12, HEPG2TOX_R_SQUARED 0.483, PBLUC_HILL_SLOPE 1.74, PBLUC_R_SQUARED 0.672, read-out: LUCIFERASE INFECTION ASSAY - IC50): 0.197 µM"
Cc1sc2nc(-c3cccnc3)nc(N3CCOCC3)c2c1-c1ccccc1,9.9,"IC50 (FFLUC_HILL_SLOPE 7.85, FFLUC_R_SQUARED 0.0779, PBLUC_HILL_SLOPE 15.6, PBLUC_R_SQUARED 0.278, read-out: LUCIFERASE INFECTION ASSAY - IC50): 8.61 µM"
OCc1ccc(-c2cnc3cnc(-c4cccs4)cn23)cc1,10.6,"IC50 (PBLUC_HILL_SLOPE 16.2, PBLUC_R_SQUARED 0.35, read-out: LUCIFERASE INFECTION ASSAY - IC50): 9.27 µM"
CCc1ccc(S(=O)(=O)Nc2cc(Sc3ccc(C)cc3)c(O)c3ccccc23)cc1,> 10,"IC50 (PBLUC_HILL_SLOPE 1.24, PBLUC_R_SQUARED 0.466, read-out: LUCIFERASE INFECTION ASSAY - IC50): 5.98 µM"
